The IC50 is the point on the concentration scale where inhibition reaches its midpoint. Read a low IC50 as greater potency.

We go through nine compounds from US20190322676A1, “CERAMIDE GALACTOSYLTRANSFERASE INHIBITORS FOR THE TREATMENT OF DISEASE” (BioMarin Pharmaceutical Inc., priority 2016, published 2019).

The target in this experiment is T1, human CGT (ceramide galactosyltransferase), CHO/CGT lysate (Homo sapiens, UniProt Q16880).
T1 construct: Full-length human CGT cDNA was cloned into the BamH1/Xho1 site of pcDNA3.1 (+); expressed in transfected cells; host or cells: Chinese hamster ovary (CHO) cells; lysate prepared with M-PER
T1 sequence (Q16880 21-541): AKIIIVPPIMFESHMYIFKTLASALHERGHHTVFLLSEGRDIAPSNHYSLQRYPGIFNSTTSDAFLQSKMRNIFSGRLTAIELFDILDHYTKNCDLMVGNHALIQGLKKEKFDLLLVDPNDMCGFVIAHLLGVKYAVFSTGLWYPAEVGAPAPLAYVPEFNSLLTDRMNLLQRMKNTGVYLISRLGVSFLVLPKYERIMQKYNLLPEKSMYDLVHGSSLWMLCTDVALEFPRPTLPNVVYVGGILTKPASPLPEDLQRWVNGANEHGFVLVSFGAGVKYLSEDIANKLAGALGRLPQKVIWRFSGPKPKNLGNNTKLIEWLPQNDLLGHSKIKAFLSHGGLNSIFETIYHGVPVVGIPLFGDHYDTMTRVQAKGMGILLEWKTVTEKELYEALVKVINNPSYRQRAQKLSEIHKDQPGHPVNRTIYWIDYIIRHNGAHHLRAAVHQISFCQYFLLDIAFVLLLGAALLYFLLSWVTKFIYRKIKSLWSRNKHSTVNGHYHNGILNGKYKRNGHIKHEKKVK
Briefly: CGT enzyme assay, RapidFire/MS/MS readout (Table 1 ranges with one asterisk *). The format is biochemical. To be noted: RapidFire method (range with one asterisk *). The method in brief:
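Lysate (4 μg) of CHO cells transfected with full-length human CGT incubated 1 h at 37 °C with compound (0.001–50 μM) in pH 7.2 HEPES buffer with 10 μM C6-NBD-dihydro-ceramide, 17.5 μM UDP-galactose, Mg2+/Mn2+, CHAPS, BSA, 0.5% DMSO; ** set also contained 0.01% Tween 80. Product quantified by RapidFire/MS/MS, normalized to internal standard; IC50 from sigmoidal variable-slope fits.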
With `NC1CC2CCC(C1)N2C(=O)[C@@H](NS(=O)(=O)c1ccc(OCC2CCCCC2)cc1)C(F)(F)c1ccc(-c2ccc(Cl)s2)cc1` (stereo partly drawn) [Compound 104-1, N-((2R)-3-(3-amino-8-azabicyclo[3.2.1]octan-8-yl)-1-(4-(5-chlorothiophen-2-yl)phenyl)-1,1-difluoro-3-oxopropan-2-yl)-4-(cyclohexylmethoxy) benzenesulfonamide], the concentration for half-maximal inhibition (IC50) lay within 1 to 10 µM.

The compound `NC1CC2CCC(C1)N2C(=O)[C@H](NS(=O)(=O)c1ccc(OCC2CCCCC2)cc1)C(F)(F)c1ccc(-c2ccc(Cl)s2)cc1` (stereo partly drawn) [Compound 104-2, N-((2S)-3-(3-amino-8-azabicyclo[3.2.1]octan-8-yl)-1-(4-(5-chlorothiophen-2-yl)phenyl)-1,1-difluoro-3-oxopropan-2-yl)-4-(cyclohexylmethoxy)benzenesulfonamide] gave a half-maximal inhibitory concentration (IC50) of 10 to 30 µM. The result for `NC1CC2CCC(C1)N2C(=O)[C@@H](NS(=O)(=O)c1ccc(OCC2CCCCC2)cc1)C(F)(F)c1ccc(OC2CCCCC2)cc1` (stereo partly drawn) [Compound 105-1, N-((2R)-3-(3-amino-8-azabicyclo[3.2.1]octan-8-yl)-1-(4-(cyclohexyloxy)phenyl)-1,1-difluoro-3-oxopropan-2-yl)-4-(cyclohexylmethoxy) benzenesulfonamide] reads below 1 µM. Compound `NC1CC2CCC(C1)N2C(=O)[C@H](NS(=O)(=O)c1ccc(OCC2CCCCC2)cc1)C(F)(F)c1ccc(OC2CCCCC2)cc1` (stereo partly drawn) [Compound 105-2, N-((2S)-3-(3-amino-8-azabicyclo[3.2.1]octan-8-yl)-1-(4-(cyclohexyloxy)phenyl)-1,1-difluoro-3-oxopropan-2-yl)-4-(cyclohexylmethoxy)benzenesulfonamide] displayed a half-inhibitory concentration (IC50) of 10 to 30 µM. Compound `CN([C@H](C(=O)N1C2CCC1CC(N)C2)C(F)(F)c1ccc(OCc2ccccc2)cc1)S(=O)(=O)c1ccc2cc(OC3CCCC3)ccc2c1` (stereo partly drawn) [Compound 106-1, N-((2R)-3-(3-amino-8-azabicyclo[3.2.1]octan-8-yl)-1-(4-(benzyloxy)phenyl)-1,1-difluoro-3-oxopropan-2-yl)-6-(cyclopentyloxy)-N-methylnaphthalene-2-sulfonamide] had an IC50 of 1 to 10 µM. In turn, `CN([C@@H](C(=O)N1C2CCC1CC(N)C2)C(F)(F)c1ccc(OCc2ccccc2)cc1)S(=O)(=O)c1ccc2cc(OC3CCCC3)ccc2c1` (stereo partly drawn) [Compound 106-2, N-((2S)-3-(3-amino-8-azabicyclo[3.2.1]octan-8-yl)-1-(4-(benzyloxy)phenyl)-1,1-difluoro-3-oxopropan-2-yl)-6-(cyclopentyloxy)-N-methylnaphthalene-2-sulfonamide] yielded an IC50 of 1 to 10 µM. The result for `NC1CC2CCC(C1)N2C(=O)[C@@H](NS(=O)(=O)c1ccc2cc(OC3CCCC3)ccc2c1)C(F)(F)c1cccc(Oc2ccccc2)c1` (stereo partly drawn) [Compound 107-1, N-((2R)-3-(3-amino-8-azabicyclo[3.2.1]octan-8-yl)-1,1-difluoro-3-oxo-1-(3-phenoxyphenyl)propan-2-yl)-6-(cyclopentyloxy)naphthalene-2-sulfonamide] reads below 1 µM. The result for `NC1CC2CCC(C1)N2C(=O)[C@H](NS(=O)(=O)c1ccc2cc(OC3CCCC3)ccc2c1)C(F)(F)c1cccc(Oc2ccccc2)c1` (stereo partly drawn) [Compound 107-2, N-((2S)-3-(3-amino-8-azabicyclo[3.2.1]octan-8-yl)-1,1-difluoro-3-oxo-1-(3-phenoxyphenyl)propan-2-yl)-6-(cyclopentyloxy)naphthalene-2-sulfonamide] reads 1 to 10 µM; that for `NC1CCN(C(=O)[C@@H](NS(=O)(=O)c2ccc3cc(OC4CCCC4)ccc3c2)C(F)(F)c2cccc(Oc3ccccc3)c2)CC1` [Compound 108-1, (R)—N-(3-(4-aminopiperidin-1-yl)-1,1-difluoro-3-oxo-1-(3-phenoxyphenyl)propan-2-yl)-6-(cyclopentyloxy)naphthalene-2-sulfonamide], below 1 µM.
